Like-named read-outs stand apart in the source and are kept apart here.

This data set in a line: Measurement of logP values by HPLC on reversed phase columns (EEC directive 79/831 Annex V.A8). The format is physicochemical. To be noted: pH 2.7, 0.1% formic acid in water / acetonitrile gradient 10% to 95%; for chromatographic logP: reversed phase HPLC column.

`CCCCCC(=O)Nc1cccc(CON=C(c2ccc(OC(F)(F)F)cc2C)c2nnnn2C)n1` (single isomer, unassigned) [Example 108] registered a logp of 4.39.
Compound `CC(C)CC(=O)Nc1cccc(CON=C(c2ccc(F)c(C(F)(F)F)c2)c2nnnn2C)n1` [Example 66] registered a logp of 3.94.
Turning to `CCCCCC(=O)Nc1cccc(CON=C(c2cc(F)cc(C(F)(F)F)c2)c2nnnn2C)n1` [Example 45], the logp came to 4.29.
Same read-out and setting: with `Cc1ccc(C(F)(F)F)cc1C(=NOCc1cccc(N)n1)c1nnnn1C` [Example 124] the figure was 1.73.
Same read-out and setting: with `CCCCCOC(=O)Nc1cccc(CON=C(c2ccc(C)c(C(F)(F)F)c2)c2nnnn2C)n1` [Example 78] the figure was 5.05.
Take `CCCCCC(=O)Nc1cccc(CON=C(c2cc(C(F)(F)F)ccc2C)c2nnnn2C)n1` [Example 111]: the logp was 4.34.
Take `Cc1cc(C(=NOCc2csc(Br)n2)c2nnnn2C)ccc1F` [Example 161, N-[(2-bromo-1,3-thiazol-4-yl)methoxy]-1-(4-fluoro-3-methylphenyl)-1-(1-methyl-1H-tetrazol-5-yl)methanimine]: the chromatographic logP (read-out: Log p) was found to be 3.57.
With `Cc1ccc(C(=NOCc2csc(N)n2)c2nnnn2C)cc1C(F)(F)F` [Example 145, 4-{[({(1-methyl-1H-tetrazol-5-yl)[4-methyl-3-(trifluoromethyl)phenyl]methylidene}amino)oxy]methyl}-1,3-thiazol-2-amine], under “read-out: Log p”, the chromatographic logP was determined as 2.22.
In turn, `CC(C)CC(=O)Nc1cccc(CON=C(c2cc(F)cc(C(F)(F)F)c2)c2nnnn2C)n1` [Example 65] yielded a logp of 3.89.
Still for that read-out and setting: with `C=CCOC(=O)Nc1cccc(CON=C(c2ccc(F)c(C)c2)c2nnnn2C)n1` [Example 56] the figure was 3.63.
The same measure, in the same setting: with `CCCCCC(=O)Nc1cccc(CON=C(c2cc(C)ccc2F)c2nnnn2C)n1` [Example 100] the figure was 3.92; with `Cc1ccc(C(=NOCc2cccc(NC(=O)CC(C)C)n2)c2nnnn2C)cc1C(F)(F)F` [Example 69], 4.14.
On the same count and under the same terms, with `CCCCCC(=O)Nc1cccc(CON=C(c2ccc(C)c(F)c2)c2nnnn2C)n1` (single isomer, unassigned) [Example 114] the figure was 4.16.
Turning to `Cc1cc(F)cc(C(=NOCc2cccc(N)n2)c2nnnn2C)c1` [Example 135], the Log p amounted to 1.46.
On to `CCCCCC(=O)Nc1cccc(CON=C(c2ccc(C(F)(F)F)c(Cl)c2)c2nnnn2C)n1` [Example 107], for which the logp was 4.7.
Take `Cn1nnnc1C(=NOCc1csc(NC(=O)C(C)(C)C)n1)c1ccc(F)c(Oc2ccccc2)c1` [Example 147]: the Log p was 4.05.
In the case of `Cc1ccc(F)c(C(=NOCc2csc(N)n2)c2nnnn2C)c1` [Example 132], the logp was found to be 1.65.
Still for that read-out and setting: to `Cn1nnnc1C(=NOCc1csc(N)n1)c1cc(F)cc(C(F)(F)F)c1` [Example 131] belongs 2.14; to `CCCCCOC(=O)Nc1cccc(CON=C(c2ccc(C(F)(F)F)cc2F)c2nnnn2C)n1` (single isomer, unassigned) [Example 23], 4.78; to `CCCCCOC(=O)Nc1cccc(CON=C(c2cc(C(F)(F)F)ccc2C)c2nnnn2C)n1` (single isomer, unassigned) [Example 110], 4.84.
Same read-out and setting: with `Cc1cc(C(=NOCc2cccc(NC(=O)CCC3CCCC3)n2)c2nnnn2C)ccc1F` [Example 58] the figure was 4.56.
`CCCC#Cc1nc(CON=C(c2ccc(F)c(C)c2)c2nnnn2C)cs1` [Example 153, 1-(4-fluoro-3-methylphenyl)-1-(1-methyl-1H-tetrazol-5-yl)-N-{[2-(pent-1-yn-1-yl)-1,3-thiazol-4-yl]methoxy}methanimine]: the chromatographic logP (read-out: Log p) stood at 4.36.
On to `Cc1c(F)cccc1C(=NOCc1cccc(NC(=O)CC(C)C)n1)c1nnnn1C` [Example 73], for which the logp worked out at 3.53.
On the same count and under the same terms, with `CCCCCOC(=O)Nc1cccc(CON=C(c2cccc(C(F)(F)F)c2Cl)c2nnnn2C)n1` [Example 87] the figure was 4.81.
`Cn1nnnc1C(=NOCc1cccc(N)n1)c1ccc(C(F)(F)F)c(Cl)c1` [Example 134]: the Log p came out at 1.9.
As for `Cc1cc(C(=NOCc2csc(NCC3CC3)n2)c2nnnn2C)ccc1F` [Example 154, N-(cyclopropylmethyl)-4-[({[(4-fluoro-3-methylphenyl)(1-methyl-1H-tetrazol-5-yl)methylidene]amino}oxy)methyl]-1,3-thiazol-2-amine], the chromatographic logP (read-out: Log p) stood at 2.71.
Take `Cc1cc(C(=NOCc2cccc(N)n2)c2nnnn2C)ccc1F` [Example 159]: the Log p came out at 1.50.
For `Cc1cccc(C(=NOCc2cccc(N)n2)c2nnnn2C)c1F` [Example 138], the Log p worked out at 1.42.
Regarding `Cn1nnnc1C(=NOCc1cccc(N)n1)c1cc(F)cc(C(F)(F)F)c1` [Example 127], the logp amounted to 1.75.
On to `Cc1ccc(C(=NOCc2cccc(N)n2)c2nnnn2C)cc1F` [Example 137], for which the Log p was determined as 1.52.
`CCCCCC(=O)Nc1cccc(CON=C(c2ccc(C)c(C(F)(F)F)c2)c2nnnn2C)n1` [Example 89] displayed a logp of 4.56.
`Cc1ccc(Cl)c(C(=NOCc2cccc(NC(=O)CC(C)C)n2)c2nnnn2C)c1` [Example 62] had a logp of 3.53.
Still for that read-out and setting: with `CCCCCC(=O)Nc1cccc(CON=C(c2cc(C)ccc2F)c2nnnn2C)n1` [Example 42] the figure was 3.83.
The compound `Cn1nnnc1C(=NOCc1cccc(N)n1)c1ccc(C(F)(F)F)cc1F` (single isomer, unassigned) [Example 142] returned a Log p of 1.72.
The same measure, in the same setting: to `CCCCC#Cc1nc(CON=C(c2ccc(F)c(C)c2)c2nnnn2C)cs1` [Example 152] belongs 4.78.
In turn, `Cc1ccc(C(=NOCc2cccc(NC(=O)CC(C)C)n2)c2nnnn2C)c(F)c1` [Example 38] gave a logp of 3.53.
`Cc1cc(F)cc(C(=NOCc2cccc(NC(=O)CC(C)C)n2)c2nnnn2C)c1` (single isomer, unassigned) [Example 158]: the Log p is listed as 3.76.
In turn, `CCCCCOC(=O)Nc1nc(CON=C(c2ccc(C)c(C(F)(F)F)c2)c2nnnn2C)cs1` [Example 22, pentyl(4-{[({(1-methyl-1H-tetrazol-5-yl)[4-methyl-3-(trifluoromethyl)phenyl]methylidene}amino)oxy]methyl}-1,3-thiazol-2-yl)carbamate] displayed a chromatographic logP of 4.73.
`Cc1ccc(C(=NOCc2cccc(NC(=O)CC(C)C)n2)c2nnnn2C)c(Cl)c1` [Example 51] returned a logp of 3.53.
Still for that read-out and setting: with `C#CCCOC(=O)Nc1cccc(CON=C(c2ccc(F)c(C)c2)c2nnnn2C)n1` [Example 53] the figure was 3.55.
`CCCCOC(=O)Nc1ccnc(CON=C(c2ccc(C)c(C(F)(F)F)c2)c2nnnn2C)n1` [Example 8, butyl(2-{[({(1-methyl-1H-tetrazol-5-yl)[4-methyl-3-(trifluoromethyl)phenyl]methylidene}amino)oxy]methyl}pyrimidin-4-yl)carbamate] gave a chromatographic logP of 4.24.
Turning to `Cc1ccc(C(F)(F)F)cc1C(=NOCc1cccc(NC(=O)CC(C)C)n1)c1nnnn1C` [Example 64], the logp was determined as 3.94.
Still for that read-out and setting: with `CCCCCOC(=O)Nc1ccnc(CON=C(c2ccc(C)c(C(F)(F)F)c2)c2nnnn2C)n1` [Example 52] the figure was 4.62; with `CCCCCOC(=O)Nc1cccc(CON=C(c2ccc(Cl)c(C(F)(F)F)c2)c2nnnn2C)n1` [Example 88], 5.14.
`CCCCCC(=O)Nc1cccc(CON=C(c2ccc(C)c(F)c2)c2nnnn2C)n1` (single isomer, unassigned) [Example 102] came in with a logp of 4.21.
The same measure, in the same setting: with `CCCCCOC(=O)Nc1cccc(CON=C(c2ccc(C(F)(F)F)c(Cl)c2)c2nnnn2C)n1` [Example 79] the figure was 5.23; with `Cc1ccc(F)c(C(=NOCc2cccc(NC(=O)CC(C)C)n2)c2nnnn2C)c1` [Example 75], 3.42; with `CCCCCOC(=O)Nc1ccnc(CON=C(c2ccc(C)c(C(F)(F)F)c2)c2nnnn2C)n1` [Example 122], 4.59.
In turn, `Cn1nnnc1C(=NOCc1cccc(N)n1)c1ccc(C(F)(F)F)cc1F` (single isomer, unassigned) [Example 141] returned a Log p of 1.82.
Consider `Cc1ccc(C(=NOCc2cccc(N)n2)c2nnnn2C)cc1C(F)(F)F` [Example 162], for which the Log p is 2.10.
Take `CCCCCC(=O)Nc1cccc(CON=C(c2cccc(F)c2C)c2nnnn2C)n1` [Example 112]: the logp is reported as 3.96.
`Cc1ccc(F)c(C(=NOCc2cccc(N)n2)c2nnnn2C)c1` [Example 136] came in with a Log p of 1.4.
In the case of `Cc1cccc(C(=NOCc2cccc(NC(=O)CC(C)C)n2)c2nnnn2C)c1F` [Example 33], the logp came to 3.51.
On the same count and under the same terms, with `CCCCCC(=O)Nc1cccc(CON=C(c2ccc(F)c(C(F)(F)F)c2)c2nnnn2C)n1` [Example 104] the figure was 4.36.
Same read-out and setting: to `Cc1ccc(C(=NOCc2cccc(NC(=O)CC(C)C)n2)c2nnnn2C)c(Cl)c1` [Example 40] belongs 3.73; to `CCCCCOC(=O)Nc1cccc(CON=C(c2ccc(C)c(C(F)(F)F)c2)c2nnnn2C)n1` [Example 81], 5.08; to `CCCCCOC(=O)Nc1cccc(CON=C(c2ccc(C(F)(F)F)c(Cl)c2)c2nnnn2C)n1` [Example 86], 5.2.
`Cn1nnnc1C(=NOCc1cccc(N)n1)c1cccc(C(F)(F)F)c1F` (single isomer, unassigned) [Example 144] came in with a Log p of 1.65.
The compound `Cc1cc(OC(F)(F)F)ccc1C(=NOCc1cccc(NC(=O)CC(C)C)n1)c1nnnn1C` [Example 34] gave a logp of 4.16.
As to `Cc1cc(C(=NOCc2csc(NC(=O)OC(C)(C)C)n2)c2nnnn2C)ccc1F` [Example 150, tert-butyl {4-[({[(4-fluoro-3-methylphenyl)(1-methyl-1H-tetrazol-5-yl)methylidene]amino}oxy)methyl]-1,3-thiazol-2-yl}carbamate], the chromatographic logP (read-out: Log p) amounted to 3.89.
Turning to `CCCCCOC(=O)Nc1cccc(CON=C(c2cccc(C(F)(F)F)c2C)c2nnnn2C)n1` [Example 44], the logp was found to be 4.78.

For the origin of these results see US20100286173A1 (priority 2008, published 2010).
